# According to patent US20170042104A1, “SUGARCANE PROCESS” (E I DU PONT DE NEMOURS AND COMPANY, priority 2014, published 2017):
# Assays:
# sugarcane plantlet = experiment: Storage of plantlets in Starcla tube seed structures after chemical treatment during regeneration; field survival; format: in vivo; details: for Survival: survival after 5 weeks of growth in field
# Text: The effect of time, temperature, and light on storage of plantlets was studied, in combination with the effect of chemical treatment. Seed structures consisted of 4″ Starcla™ tubes. Tubes were extruded from a resin, such as a blend of polybutylene succinate, polylactic acid, and starch, using a 1½″ Davis Standard-extruder. Tubing was made with ⅝″ I.D. and cut into 4″ length tubes. The seeds were assembled by heating the bottom of the tube and pressing into a crescent shape where there is 2-3 millimeter gap between both sides. Two grams of potting media were added to each tube. One sugarcane plantlet was placed inside the tube structure ensuring the roots were placed in the soil and the shoot remained in the airspace. Two milliliters of water were added to the structure and then the top was prepared by heating and forming a crescent shape with a 2-3 millimeter gap between both sides.
# Two types of chemical treatments were used during regeneration. The first treatment was paclobutrazol (paclo), which was introduced into the media for weeks 3 and 4 of plantlet formation. The solution contained 2% sucrose, ½ strength MS, 100 ppm cefotaxime, and 0.75 mg/L paclobutrazol. The second treatment was abscisic acid (ABA) which was introduced the day before the plantlets were removed from regeneration. The ABA treatment solution contained 1 mg/L ABA, 10 g/L sucrose, and MS solution.
# The tubes were stored in partially closed zip bags with 25 tubes per unit. After storage the seeds were planted. No irrigation was used during the time the plantlets were growing in the field. The survival rates of the plantlets were measured after 5 weeks of growth.
# [1] = test system: regenerable plant tissue (RPT); experiment: Culturing of regenerable plant tissue in media with BAP; format: cell-based, sugarcane; details: BAP present in the culture
# Text: General procedures have been previously outlined (International Publication No. WO 2013/096531, incorporated by reference herein). In summary, half-explants were trimmed of excess stalk tissue, leaving behind the proliferating buds areas. Trimmed tissue was placed into a temporary immersion chamber for liquid culture, or back onto solid media. In the case of temporary immersion, the chamber was placed in a growth chamber, or room, with 30 uE/m2/sec of PAR light, and was hooked to tubing connected to pumps to allow standard immersion cycling. Media (MS+3% sucrose+[…]+3 mg/L paclobutrazol) was changed weekly. Harvest occurred 2-20 weeks after initiation, depending on whether the tissue is grown on solid or liquid media, and the overall mass of the regenerable plant tissue (RPT).
# The RPT was subdivided into additional growth chambers or plates as needed. Multiple rounds of growth cycles were possible.
# [2] = Accelerated degradation of cellulosic composites buried in soil; format: physicochemical; details: buried in soil 1 month, 30° C., approximately 50% humidity; confidence interval 95%
# Experimental: Cellulosic pulp was mixed with various materials to study the influence of the materials in the degradation of them in soil. To evaluate the different materials developed with cellulose, an accelerated degradation protocol was developed wherein samples with different compositions were buried in a recipient containing soil, and kept for 1 month in an incubator at 30° C. and approximately 50% humidity, representing field conditions. The cellulose content was measured using thermogravimetric analyses before and after the test to evaluate degradation, indicating cellulose degradation in field.
# Different materials were tested, including a residue from the pulp and paper industry containing cellulosic fibers of long and short nature; inorganic fillers, mainly TiO2 and pigments. The final structure contained more than 90% of this cellulose mixture. To this mixture was added polyvinyl alcohol, up to 5% in weight, ionomer of ethylene acid copolymer, up to 5% in weight, used in the packaging industry, cationic starch, up to 5% in weight, more likely 1% to accelerate degradation, while promoting the adherence of the adjacent fibers of cellulose, urea to accelerate the degradation and nutrition of plants up to 10% in weight, more likely 5%, and AKD (alkyl ketene dimer) in a starch solution to serve as moisture barrier by changing the hydrophobicity of cellulose, more likely between 1-10 ppm.
# sugarcane = experiment: Plantlet formation with Na silicate added to MS media; field test; format: in vivo; details: 5 mM added to MS media in weeks 3 and 4; observational evidence
# Experimental: Plantlet formation (production of plants with shoots and roots), also called regeneration, was initiated by transferring the RPT to media without hormones. RPT fragments were made using scalpels, chopping tools, or by large scale dicing of material by mechanical means. Fragment size was determined by end usage: RPT fragments for growth in arrays were approximately 1-10 mm cubes, for growth in temporary immersion chambers somewhat larger fragments 5-20 mm were used, or the RPT was left unfragmented. The media used was MS+3% sucrose. Plantlet formation occurred at 26° C. in 60 uE/m2/sec of PAR light (16 hours on and 8 hours off), and if temporary immersion was used media was cycled over the fragments for 1 minute every 2 hours. Media was replaced weekly and was supplemented with 100 ppm carbenicillin, 0.2% PPM (Plant Preservative Mixture™, Plant Cell Technology Inc. Washington, D.C.), and/or 100 ppm cefotaxime as needed. Supplemental carbon dioxide (1500 ppm) was used in some growth cycles, but is not essential. After 3-4 weeks the MS concentration was decreased to ½ strength to encourage rooting, although not required.
# The addition of 5 mM Na silicate to the MS media was made in weeks 3 and 4. […] Silicates accumulated in sugarcane tissues conferring anti-predatory, anti-fungal properties. […]
# [3] = Conditions N, O: 0 weeks, not stored
compound,measurement,setting,value
"CC(C)(C)[C@@H](O)[C@@H](Cc1ccc(Cl)cc1)n1cncn1 (racemic) [Paclo, paclobutrazol]",Survival,"sugarcane plantlet; Condition A: storage 8 weeks, temperature 10, light 0",0%
same,Survival,"sugarcane plantlet; Condition B: storage 8 weeks, temperature 30, light 200",88%
same,Survival,"sugarcane plantlet; Condition E: storage 4 weeks, temperature 10, light 5",0%
same,Survival,"sugarcane plantlet; Condition F: storage 4 weeks, temperature 30, light 0",0%
same,Survival,"sugarcane plantlet; Condition J: storage 2 weeks, temperature 10, light 0",0%
same,Survival,"sugarcane plantlet; Condition K: storage 2 weeks, temperature 30, light 200",64%
same,Survival,sugarcane plantlet; [3],16%
same,Survival rate compared between treatments,sugarcane plantlet; storage experiment of Table 3 overall,higher survival rate than the ABA treatment
"CC1=CC(=O)CC(C)(C)[C@@]1(O)/C=C/C(C)=C\C(=O)O [ABA, abscisic acid]",Survival,"sugarcane plantlet; Condition C: storage 8 weeks, temperature 10, light 5",0%
same,Survival,"sugarcane plantlet; Condition D: storage 8 weeks, temperature 30, light 0",0%
same,Survival,"sugarcane plantlet; Condition G: storage 4 weeks, temperature 10, light 0",0%
same,Survival,"sugarcane plantlet; Condition H: storage 4 weeks, temperature 30, light 200",50%
same,Survival,"sugarcane plantlet; Condition L: storage 2 weeks, temperature 10, light 5",0%
same,Survival,"sugarcane plantlet; Condition M: storage 2 weeks, temperature 30, light 0",0%
same,Survival,sugarcane plantlet; [3],12%
"c1ccc(CNc2ncnc3nc[nH]c23)cc1 [BAP, 6-Benzylaminopurine]",Root formation,[1],No root formation is detected
NC(N)=O [urea],Influence on the degradation of cellulosic compounds,[2],high influence
Na silicate,Growth rate and root production in a field test,sugarcane,improves growth rate and root production
